Results taken from paper PMC6220303 (EMBO Molecular Medicine, 2018).

What was measured:
[1] = test system: healthy participants ≥ 60 years; assay: Adverse events after 3 months daily dosing (Appendix Table S8); format: in vivo, human
Protocol: (§1) For further details, see the Appendix Table S10 in Appendix and the accompanying clinical protocols synopsis (Appendix Table S11).
Randomized, double-blind, placebo-controlled, parallel-group study to assess the safety, Multiple-dose over 13-tolerability, pharmacokinetics ≥ 60 yrs 100 / 24 weeks (2, 10, 35 or 85 mg and pharmacodynamics of q.d. CNP520 vs. placebo) multiple oral doses of CNP520 in healthy elderly participants
Title A randomized, double-blind, placebo-controlled, parallel-group study to assess the safety, tolerability, pharmacokinetics and pharmacodynamics of multiple oral doses of CNP520 in healthy elderly subjects
Brief title Dose-ranging safety and tolerability study in subjects ≥60 years of age Sponsor and Clinical Novartis
Study type Interventional […]
rationale months to allow initiation future long-term efficacy trials in patients with Alzheimer’s disease (AD) or in subjects at risk of AD. In addition, data relevant for Pharmacokinetic/Pharmacodynamic modeling will be obtained in order to define the target dose in subsequent efficacy studies.
Primary Objective(s) To determine the safety and tolerability of multiple, once-daily oral doses of […]
Secondary • To assess the change from baseline of CSF Aβ concentrations (Aβ1-Objectives 38; Aβ1-40; Aβ1-42) in healthy elderly subjects over 13 weeks treatment with CNP520 as compared to placebo

[2] = test system: healthy participants ≥ 60 years; assay: Adverse events after single dose (Appendix Table S6); format: in vivo, human
Excerpt: as §1
Appendix Table S3. Overview of completed clinical studies with CNP520
Study description Population No. of Participants Dose/Frequency […]
First-in-human, randomized, 18-55 yrs 38 / 14 Single dose (10, 30, 90, […]
controlled, single and multiple CNP520 vs placebo) ascending oral dose study to Single dose (10, 90, 300,

[3] = format: in vivo; settings: rat, 15.4 mg/kg oral
APP23 mice = settings: APP23, mouse, in vivo, 3 months

With `C[C@@]1(c2nc(NC(=O)c3ncc(C(F)(F)F)cc3Cl)ccc2F)CO[C@@](C)(C(F)(F)F)C(N)=N1` [CNP520] the “AE incidence: Gastrointestinal disorders” value ([1]; 85 mg daily, N = 24) was 4 (16.7) n (%), the “AE incidence: General disorders and administration site conditions” value ([1]; 85 mg daily, N = 24) was 5 (20.8) n (%) and the “AE incidence: Immune system disorders” value ([1]; 85 mg daily, N = 24) was 1 (4.2) n (%). For the same compound, the “AE incidence: Infections and infestations” value ([1]; 85 mg daily, N = 24) was 4 (16.7) n (%), the “AE incidence: Injury, poisoning and procedural complications” value ([1]; 85 mg daily, N = 24) was 8 (33.3) n (%) and the “AE incidence: Investigations” value ([1]; 85 mg daily, N = 24) was 1 (4.2) n (%). For the same compound, the “AE incidence: Metabolism and nutrition disorders” value ([1]; 85 mg daily, N = 24) was 0 (0.0) n (%), the “AE incidence: Neoplasms benign, malignant & unspecified (incl. cysts and polyps)” value ([1]; 85 mg daily, N = 24) was 0 (0.0) n (%) and the “AE incidence: Nervous system disorders” value ([1]; 85 mg daily, N = 24) was 8 (33.3) n (%). For the same compound, the “AE incidence: Psychiatric disorders” value ([1]; 85 mg daily, N = 24) was 2 (8.3) n (%), the “AE incidence: Renal and urinary disorders” value ([1]; 85 mg daily, N = 24) was 1 (4.2) n (%) and the “AE incidence: Reproductive system and breast disorders” value ([1]; 85 mg daily, N = 24) was 0 (0.0) n (%). For the same compound, the “AE incidence: Respiratory, thoracic and mediastinal disorders” value (“AE incidence: Respiratory” below) ([1]; 85 mg daily, N = 24) was 5 (20.8) n (%), the “AE incidence: Skin and subcutaneous tissue disorders” value ([1]; 85 mg daily, N = 24) was 6 (25.0) n (%) and the “AE incidence: Vascular disorders” value ([1]; 85 mg daily, N = 24) was 1 (4.2) n (%). The “Participants with at least one AE” value ([1]; 85 mg daily, N = 24) was 18 (75.0) n (%), the “AE incidence: Blood and lymphatic system disorders” value ([1]; all doses, N = 100) was 1 (1.0) n (%) and the “AE incidence: Ear and labyrinth disorders” value ([1]; all doses, N = 100) was 3 (3.0) n (%). For the same compound, the “AE incidence: Eye disorders” value ([1]; all doses, N = 100) was 11 (11.0) n (%), the “AE incidence: Gastrointestinal disorders” value ([1]; all doses, N = 100) was 29 (29.0) n (%) and the “AE incidence: General disorders and administration site conditions” value ([1]; all doses, N = 100) was 12 (12.0) n (%). The “AE incidence: Immune system disorders” value ([1]; all doses, N = 100) was 1 (1.0) n (%), the “AE incidence: Infections and infestations” value ([1]; all doses, N = 100) was 23 (23.0) n (%) and the “AE incidence: Injury, poisoning and procedural complications” value ([1]; all doses, N = 100) was 36 (36.0) n (%). For the same compound, the “AE incidence: Investigations” value ([1]; all doses, N = 100) was 4 (4.0) n (%), the “AE incidence: Metabolism and nutrition disorders” value ([1]; all doses, N = 100) was 2 (2.0) n (%) and the “AE incidence: Neoplasms benign, malignant & unspecified (incl. cysts and polyps)” value ([1]; all doses, N = 100) was 2 (2.0) n (%). For the same compound, the “AE incidence: Nervous system disorders” value ([1]; all doses, N = 100) was 40 (40.0) n (%), the “AE incidence: Psychiatric disorders” value ([1]; all doses, N = 100) was 6 (6.0) n (%) and the “AE incidence: Renal and urinary disorders” value ([1]; all doses, N = 100) was 5 (5.0) n (%). For the same compound, the “AE incidence: Reproductive system and breast disorders” value ([1]; all doses, N = 100) was 2 (2.0) n (%), the “AE incidence: Respiratory” value ([1]; all doses, N = 100) was 22 (22.0) n (%) and the “AE incidence: Skin and subcutaneous tissue disorders” value ([1]; all doses, N = 100) was 18 (18.0) n (%). The “AE incidence: Vascular disorders” value ([1]; all doses, N = 100) was 3 (3.0) n (%), the “Participants with at least one AE” value ([1]; all doses, N = 100) was 80 (80.0) n (%) and the “AE incidence: Musculoskeletal and connective tissue disorders” value ([1]; human, in vivo) was 27 (27.0) n (%). For the same compound, the “AE incidence: Blood and lymphatic system disorders” value ([2]; single dose 300 mg, N = 10) was 1 (10.0) n (%), the “AE incidence: Cardiac disorders” value ([2]; single dose 300 mg, N = 10) was 1 (10.0) n (%) and the “AE incidence: Gastrointestinal disorders” value ([2]; single dose 300 mg, N = 10) was 4 (40.0) n (%). For the same compound, the “AE incidence: General disorders and administration site conditions” value ([2]; single dose 300 mg, N = 10) was 3 (30.0) n (%), the “AE incidence: Nervous system disorders” value ([2]; single dose 300 mg, N = 10) was 4 (40.0) n (%) and the “AE incidence: Renal and urinary disorders” value ([2]; single dose 300 mg, N = 10) was 0 (0.0) n (%). The “AE incidence: Respiratory” value ([2]; single dose 300 mg, N = 10) was 2 (20.0) n (%), the “AE incidence: Skin and subcutaneous tissue disorders” value ([2]; single dose 300 mg, N = 10) was 3 (30.0) n (%) and the “Participants with at least one AE” value ([2]; single dose 300 mg, N = 10) was 10 (100.0) n (%). For the same compound, the “AE incidence: Blood and lymphatic system disorders” value ([2]; single dose 750 mg, N = 11) was 0 (0.0) n (%), the “AE incidence: Cardiac disorders” value ([2]; single dose 750 mg, N = 11) was 0 (0.0) n (%) and the “AE incidence: Gastrointestinal disorders” value ([2]; single dose 750 mg, N = 11) was 3 (27.3) n (%). For the same compound, the “AE incidence: General disorders and administration site conditions” value ([2]; single dose 750 mg, N = 11) was 3 (27.3) n (%), the “AE incidence: Nervous system disorders” value ([2]; single dose 750 mg, N = 11) was 7 (63.6) n (%) and the “AE incidence: Renal and urinary disorders” value ([2]; single dose 750 mg, N = 11) was 1 (9.1) n (%). For the same compound, the “AE incidence: Respiratory” value ([2]; single dose 750 mg, N = 11) was 0 (0.0) n (%), the “AE incidence: Skin and subcutaneous tissue disorders” value ([2]; single dose 750 mg, N = 11) was 1 (9.1) n (%) and the “Participants with at least one AE” value ([2]; single dose 750 mg, N = 11) was 9 (81.8) n (%). For the same compound, the “peak concentration of unbound CNP520 in the brain” value [3] was 50 nM, the “Hemorrhage (H & E staining) % affected” value (APP23 mice) was 7% and the “Hemorrhage (H & E staining) Grade 1, number of animals affected” value (APP23 mice) was 1. The “Hemorrhage (H & E staining) Grade 2, number of animals affected” value (APP23 mice) was 0, the “Hemosiderin (Perl’s staining) % affected” value (APP23 mice) was 47% and the “Hemosiderin (Perl’s staining) Grade 1, number of animals affected” value (APP23 mice) was 7. For the same compound, the “Hemosiderin (Perl’s staining) Grade 2, number of animals affected” value (APP23 mice) was 0.
